From patent US20190194209A1, “PYRAZOLE CARBOXAMIDE COMPOUNDS AND METHODS OF USE” (Genentech, Inc., priority 2014, published 2019) come the findings set out here.

Experiment [1] concerns the target T1, full length human wildtype Btk (Homo sapiens, UniProt Q06187).
T1 construct: V5 (C); 6xHis (C); made in house; host or cells: Sf9 cells (baculovirus, pFastBac)
Briefly: Biochemical Btk Kinase Assay (Example 901). The settings on record: read-out: BTK LC3K (Ki). In short, it runs like this:
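Recombinant C-terminal V5/6×His-tagged Btk from Sf9 cells, 0.5 μM biotinylated PTK peptide 2, 40 μM ATP final, pH 7.5 Tris buffer, 1 h at room temperature; TR-FRET (SA-APC/PT66) read, IC50 from 11-point curve from 10 μM. Alternative LanthaScreen: 0.4 uM fluorescein poly-GAT, 25 μM ATP, 60 min, Tb-PY20 detection.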

Experiment [2] has as its system CD69 production by B lymphocytes in human whole blood activated with goat F(ab')2 anti-human IgM. Briefly: CD69 Whole Blood Assay (Example 907). Type of experiment: cell-based. The settings on record: Lymphocyte; human whole blood, anti-IgM stimulated, 20 hour incubation, CD20 positive cells, FACS; read-out: CD69 Hu Blood FACS (IC70). The source says: A CD69 Whole Blood Assay can be conducted on Formula I compounds to determine the ability of compounds to inhibit the production of CD69 by B lymphocytes in human whole blood activated by crosslinking surface IgM with goat F(ab′)2 anti-human IgM (Example 907). CD69 is a type II C-type lectin involved in lymphocyte migration and cytokine secretion. CD69 expression represents one of the earliest available indicators of leukocyte activation and its rapid induction occurs through transcriptional activation (Vazquez et al (2009) Jour. of Immunology Published Oct. 19, 2009, doi: 10.4049/jimmunol.0900839). Concentration-dependent inhibition of antigen receptor stimulation by selective Btk inhibitors induces cell surface expression of the lymphocyte activation marker CD69 (Honigberg et al (2010) Proc. Natl. Acad. Sci. 107(29):13075-13080). Thus, CD69 inhibition by selective Btk inhibitors may be correlated with therapeutic efficacy of certain B-cell disorders.
Human blood is obtained from healthy volunteers, with the following restrictions: 1 week drug-free, non-smokers. Blood (approximately 20 mls to test 8 compounds) is collected by venipuncture into Vacutainer® (Becton, Dickinson and Co.) tubes with sodium heparin.
Solutions of Formula I compounds at 10 mM in DMSO are diluted 1:10 in 100% DMSO, then are diluted by three-fold serial dilutions in 100% DMSO for a ten point dose-response curve. The compounds are further diluted 1:10 in PBS and then an aliquot of 5.5 μl of each compound is added in duplicate to a 2 ml 96-well plate; 5.5 μl of 10% DMSO in PBS is added as control and no-stimulus wells. Human whole blood—HWB (100 μl) is added to each well. After mixing the plates are incubated at 37° C., 5% CO2, 100% humidity for 30 minutes. Goat F(ab′)2 anti-human IgM (10 μl of a 500 μg/ml solution, 50 μg/ml final) is added to each well (except the no-stimulus wells) with mixing and the plates are incubated for an additional 20 hours. At the end of the 20 hour incubation, samples are incubated with fluorescent labeled antibodies for 30 minutes, at 37° C., 5% CO2, 100% humidity. Include induced control, unstained and single stains for compensation adjustments and initial voltage settings. Samples are then lysed with PharM Lyse™ (BD Biosciences Pharmingen) according to the manufacturer's instructions. Samples are then transferred to a 96 well plate suitable to be run on the BD Biosciences HTS 96 well system on the LSRII machine. Data acquired and Mean Fluorescence Intensity values were obtained using BD Biosciences DIVA Software. Results are initially analyzed by FACS analysis software (Flow Jo).

T1 sequence (Q06187 whole entry): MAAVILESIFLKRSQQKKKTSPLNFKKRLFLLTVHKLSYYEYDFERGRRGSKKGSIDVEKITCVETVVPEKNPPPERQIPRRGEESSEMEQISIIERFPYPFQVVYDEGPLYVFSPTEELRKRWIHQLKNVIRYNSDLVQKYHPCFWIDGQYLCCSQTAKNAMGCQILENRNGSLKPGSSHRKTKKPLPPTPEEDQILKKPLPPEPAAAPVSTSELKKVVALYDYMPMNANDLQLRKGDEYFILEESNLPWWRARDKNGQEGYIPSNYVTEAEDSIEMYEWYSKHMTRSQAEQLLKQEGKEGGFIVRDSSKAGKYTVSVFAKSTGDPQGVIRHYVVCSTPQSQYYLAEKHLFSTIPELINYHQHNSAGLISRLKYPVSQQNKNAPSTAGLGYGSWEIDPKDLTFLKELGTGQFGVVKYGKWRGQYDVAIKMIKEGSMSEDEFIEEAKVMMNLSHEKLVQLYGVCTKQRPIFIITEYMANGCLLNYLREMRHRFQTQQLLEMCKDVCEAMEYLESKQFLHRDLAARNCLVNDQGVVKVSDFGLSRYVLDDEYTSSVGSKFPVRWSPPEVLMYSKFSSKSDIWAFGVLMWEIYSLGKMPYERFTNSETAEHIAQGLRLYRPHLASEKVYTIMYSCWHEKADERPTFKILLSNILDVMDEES

On to `CC1(C)Cc2cc3n(c2C1)CCN(c1nccc(-n2cc(C(N)=O)c(NC(=O)C4CC4)n2)c1CO)C3=O` [Example 107, 3-(cyclopropanecarbonylamino)-1-[2-(7,7-dimethyl-4-oxo-1,2,6,8-tetrahydrocyclopenta[3,4]pyrrolo[3,5-b]pyrazin-3-yl)-3-(hydroxymethyl)-4-pyridyl]pyrazole-4-carboxamide], for which, in experiment [1], the Ki was determined as 0.615 nM. In addition, the IC70 in experiment [2] is 52.1 nM.
